Reference: EPA's ToxValDB 9.5 (doi:10.2903/j.efsa.2016.4574)
Converted amounts (≈) assume the structure as drawn.

Legend:
Folsomia candida = conditions: chronic/long-term; duration: 28 days; mortality
Hypoaspis aculeifer = conditions: chronic/long-term; duration: 14 days; mortality
Oncorhynchus mykiss = conditions: acute; duration: 96 hours; mortality
Tagia sp. = conditions: for LC50: acute, duration: 14 days, mortality; for NOEC: chronic/long-term, duration: 56 days, growth
Apis mellifera = conditions: acute, duration: 48 hours, mortality
Canidae = conditions: Dog Other, clinical chemistry
Colinus virginianus = conditions: chronic
Coturnix japonica = conditions: acute; oral; mortality
Daphnia magna = conditions: chronic/long-term; duration: 21 days
Lepomis macrochirus = conditions: acute; duration: 96 hours; mortality
Oryctolagus sp. = conditions: reproduction developmental; body weight
Pimephales promelas = conditions: chronic/long-term; duration: 28 days; growth
Typhlodromus pyri = assay: LR50; higher = less toxic; conditions: not reported; no effects

Structure (SMILES) | NOEC (Folsomia candida) [mg/kg] | NOEC (Hypoaspis aculeifer) [mg/kg] | LC50 (Oncorhynchus mykiss) [µg/mL] | LC50 (Tagia sp.) [mg/kg] | NOEC (Tagia sp.) [mg/kg] | LD50 (Apis mellifera; dermal) [µg/piece] | LD50 (Apis mellifera; oral, unspecified) [µg/piece] | NOAEL (Canidae; chronic, duration: 1 years, oral) [mg/kg-day] | NOAEL (Canidae; subchronic, duration: 90 days) [mg/kg-day] | NOEL (Colinus virginianus) [mg/kg-day] | LD50 (Coturnix japonica) [mg/kg-day] | NOEC (Daphnia magna) [mg/L] | LC50 (Lepomis macrochirus) [µg/mL] | NOAEL (Oryctolagus sp.) [mg/kg-day] | NOEC (Pimephales promelas) [mg/L] | LD50 (Rattus norvegicus; acute, oral, mortality) [mg/kg] | NOAEL (Rattus norvegicus; chronic, duration: 2 years, M, histopathology: neoplastic) [mg/kg-day] | NOEL (Rattus norvegicus; reproduction developmental, body weight) [mg/kg-day] | LR50 (Typhlodromus pyri) [g/ha]
C=CCNC(=O)c1c([Si](C)(C)C)sc(C(=O)O)c1C [Silthiofam allyl acid] | 0.207 | 0.207 | > 113 | > 466 | 0.207 |  |  |  |  |  |  |  |  |  |  |  |  |  | 
Cc1c(C(=O)O)sc([Si](C)(C)C)c1C(N)=O [Silthiofam amide acid] | 0.194 | 0.194 | > 110 | > 460 | 0.194 |  |  |  |  |  |  |  |  |  |  |  |  |  | 
C=CCNC(=O)c1c([Si](C)(C)C)sc(C)c1C [Silthiofam] | 1.33 |  |  | 66.5 | 30 | > 100 | > 106 | 10 | 10 | 250 | > 2250 | 0.47 | 11 (≈ 41.1 µM) | 20 | 0.89 | > 5000 | 5 | 23.5 | > 40
